Measured values as given in ChEMBL document CHEMBL1157515, “Discovery of a novel class of 2-ureido thiophene carboxamide checkpoint kinase inhibitors” (Bioorg Med Chem Lett, 2008).

Columns and labels:
[1] = target: T1, Serine/threonine-protein kinase Chk1 (Homo sapiens, UniProt O14757); assay: Inhibition of Chk1
T1 sequence (O14757 whole entry): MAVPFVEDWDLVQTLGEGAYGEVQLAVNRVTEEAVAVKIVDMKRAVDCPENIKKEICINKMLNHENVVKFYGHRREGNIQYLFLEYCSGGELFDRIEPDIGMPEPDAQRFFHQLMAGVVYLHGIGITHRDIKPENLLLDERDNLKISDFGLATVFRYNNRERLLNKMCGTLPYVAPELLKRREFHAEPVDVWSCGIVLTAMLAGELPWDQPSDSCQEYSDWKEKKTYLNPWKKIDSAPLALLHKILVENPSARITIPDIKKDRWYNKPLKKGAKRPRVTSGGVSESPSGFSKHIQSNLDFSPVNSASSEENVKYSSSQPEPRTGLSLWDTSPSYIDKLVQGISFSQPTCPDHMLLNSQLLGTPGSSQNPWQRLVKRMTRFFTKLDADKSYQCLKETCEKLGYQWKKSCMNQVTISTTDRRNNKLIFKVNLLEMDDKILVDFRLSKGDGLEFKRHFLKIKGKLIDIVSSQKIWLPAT

[2] = test system: HT-29; assay: Abrogation of camptothecin induced cell cycle arrest at G2/M phase in human HT29 cells; type: functional, cell-based
[3] = Lipophilicity, log D of the compound; type: physicochemical; conditions: octanol/water
[4] = Solubility of the compound; type: physicochemical
[5] = Clearance in mouse; type: ADME, organism-based; conditions: in vivo
[6] = Half life in mouse; type: ADME, organism-based; conditions: in vivo
[7] = Clearance in dog; type: ADME, organism-based, Canis lupus familiaris; conditions: in vivo
[8] = Half life in dog; type: ADME, organism-based, Canis lupus familiaris; conditions: in vivo
[9] = Oral bioavailability in dog; type: ADME, organism-based, Canis lupus familiaris; conditions: in vivo
[10] = target: Voltage-gated inwardly rectifying potassium channel KCNH2 (Homo sapiens, UniProt Q12809); assay: Inhibition of human ERG
Sequence of Voltage-gated inwardly rectifying potassium channel KCNH2 (Q12809 whole entry): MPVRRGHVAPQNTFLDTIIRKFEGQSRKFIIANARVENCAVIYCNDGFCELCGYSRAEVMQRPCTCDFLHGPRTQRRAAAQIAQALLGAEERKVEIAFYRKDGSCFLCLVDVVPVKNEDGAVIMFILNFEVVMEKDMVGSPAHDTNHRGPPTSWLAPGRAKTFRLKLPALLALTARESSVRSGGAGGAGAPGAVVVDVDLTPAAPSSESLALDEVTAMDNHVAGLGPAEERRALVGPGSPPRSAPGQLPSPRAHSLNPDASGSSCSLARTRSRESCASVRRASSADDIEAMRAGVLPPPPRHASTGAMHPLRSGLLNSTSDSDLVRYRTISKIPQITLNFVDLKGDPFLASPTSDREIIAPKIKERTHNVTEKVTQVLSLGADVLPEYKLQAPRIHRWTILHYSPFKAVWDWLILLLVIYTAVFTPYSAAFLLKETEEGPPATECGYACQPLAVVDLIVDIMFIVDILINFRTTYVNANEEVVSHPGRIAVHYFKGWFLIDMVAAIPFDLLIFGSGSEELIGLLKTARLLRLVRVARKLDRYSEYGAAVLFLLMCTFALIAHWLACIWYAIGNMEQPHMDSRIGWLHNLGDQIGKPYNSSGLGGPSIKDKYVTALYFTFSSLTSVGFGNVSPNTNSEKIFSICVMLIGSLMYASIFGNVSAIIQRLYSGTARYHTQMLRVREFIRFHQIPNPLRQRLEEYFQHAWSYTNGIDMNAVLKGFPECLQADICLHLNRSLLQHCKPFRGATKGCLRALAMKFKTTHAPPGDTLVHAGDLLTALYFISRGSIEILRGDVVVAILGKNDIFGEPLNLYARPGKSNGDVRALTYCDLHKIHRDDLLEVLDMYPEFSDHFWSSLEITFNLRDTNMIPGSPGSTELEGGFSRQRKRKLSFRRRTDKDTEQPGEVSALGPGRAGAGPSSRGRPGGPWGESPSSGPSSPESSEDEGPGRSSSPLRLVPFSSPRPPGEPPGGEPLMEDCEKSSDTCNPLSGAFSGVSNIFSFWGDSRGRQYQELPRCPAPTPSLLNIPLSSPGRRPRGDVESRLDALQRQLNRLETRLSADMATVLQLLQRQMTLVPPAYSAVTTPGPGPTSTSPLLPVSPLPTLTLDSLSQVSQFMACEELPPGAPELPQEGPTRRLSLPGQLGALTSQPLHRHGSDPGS

[11] = Inhibition of CYP; type: ADME

| IC50 [1] | EC50 ([2]; Homo sapiens, HT-29) | Structure (SMILES) | also measured |
| --- | --- | --- | --- |
| 9 nM | 30 nM | NC(=O)Nc1sc(-c2ccc(F)cc2)cc1C(=O)N[C@H]1CCCNC1 |  |
| 100 nM | > 12500 nM | CCN(CC)CCOc1ccc(-c2cc(C(=O)NC3CCNC3)c(NC(N)=O)s2)cc1 (stereo unspecified) |  |
| 6 nM | < 9 nM | NC(=O)Nc1sc(-c2ccsc2)cc1C(=O)N[C@H]1CCCNC1 |  |
| 10 nM | 2600 nM | CCN(CC)CCOc1cccc(-c2cc(C(=O)NC3CCCNC3)c(NC(N)=O)s2)c1 (racemic) |  |
| 4100 nM |  | COCCOCCOc1ccc(-c2cc(C(N)=O)c(NC(N)=O)s2)cc1 |  |
| 72 nM |  | COCCNCc1ccc(-c2cc(C(N)=O)c(NC(N)=O)s2)cc1 |  |
| 30 nM | 960 nM | NCCNC(=O)c1cc(-c2ccccc2)sc1NC(N)=O |  |
| 5500 nM |  | CN(CCN)C(=O)c1cc(-c2ccccc2)sc1NC(N)=O |  |
| 7100 nM |  | CN1CCN(C(=O)c2cc(-c3ccccc3)sc2NC(N)=O)CC1 |  |
| 7 nM | 60 nM | CC(=O)c1ccc(-c2cc(C(=O)N[C@H]3CCCNC3)c(NC(N)=O)s2)cc1 |  |
| 29 nM |  | COc1ccc(CNCc2ccc(-c3cc(C(N)=O)c(NC(N)=O)s3)cc2)cc1 |  |
| 10 nM | 40 nM | NC(=O)Nc1sc(-c2ccc(Cl)cc2)cc1C(=O)N[C@H]1CCCNC1 |  |
| 8 nM | 1800 nM | CC(=O)Nc1cccc(-c2cc(C(=O)N[C@H]3CCCNC3)c(NC(N)=O)s2)c1 |  |
| 5100 nM |  | NC(=O)Nc1sc(-c2ccccc2)cc1C(=O)NCCO |  |
| 14 nM | 40 nM | NC(=O)Nc1sc(-c2cccc(Cl)c2)cc1C(=O)N[C@H]1CCCNC1 |  |
| 100 nM | 6200 nM | NC(=O)Nc1sc(-c2ccccc2)cc1C(=O)NC[C@@H]1CCCNC1 |  |
| 110 nM |  | NC(=O)Nc1sc(-c2ccccc2)cc1C(=O)NC1CNCCNC1=O (stereo unspecified) |  |
| 10 nM | 70 nM | Cc1ccc(-c2cc(C(=O)N[C@H]3CCCNC3)c(NC(N)=O)s2)cc1 |  |
| 41 nM | 2200 nM | CS(=O)(=O)Nc1ccc(-c2cc(C(=O)N[C@H]3CCCNC3)c(NC(N)=O)s2)cc1 |  |
| 31 nM |  | CN(CCO)Cc1ccc(-c2cc(C(N)=O)c(NC(N)=O)s2)cc1 |  |
| 100 nM | 580 nM | CNCCNC(=O)c1cc(-c2ccccc2)sc1NC(N)=O |  |
| 11 nM | 130 nM | NC(=O)Nc1sc(-c2ccc(C(=O)N3CCCCC3)cc2)cc1C(=O)N[C@H]1CCCNC1 |  |
| 360 nM |  | CNCCOc1ccc(-c2cc(C(N)=O)c(NC(N)=O)s2)cc1 |  |

| IC50 [1] | EC50 ([2]; Homo sapiens, HT-29) | Structure (SMILES) | also measured |
| --- | --- | --- | --- |
| 50 nM | > 12500 nM | CCN(CC)CCOc1ccc(-c2cc(C(=O)Nc3cccc(CO)c3)c(NC(N)=O)s2)cc1 |  |
| 6 nM | 80 nM | N#Cc1ccc(-c2cc(C(=O)N[C@H]3CCCNC3)c(NC(N)=O)s2)cc1 |  |
| > 10000 nM |  | NC(=O)Nc1sc(-c2ccccc2)cc1C(=O)NCc1ccccc1 |  |
| 41 nM |  | CN1CCN(Cc2ccc(-c3cc(C(N)=O)c(NC(N)=O)s3)cc2)CC1 |  |
| 5000 nM |  | COc1ccc(-c2cc(C(N)=O)c(NC(N)=O)s2)cc1 |  |
|  | 17 nM | CCN(CC)CCOc1ccc(-c2cc(C(=O)NC3CCCNC3)c(NC(N)=O)s2)cc1 (stereo unspecified) |  |
| 100 nM | 2100 nM | NC(=O)Nc1sc(-c2ccccc2)cc1C(=O)NC[C@H]1CCCNC1 |  |
| 17 nM |  | CC1(C)CCCC(C)(C)N1Cc1ccc(-c2cc(C(N)=O)c(NC(N)=O)s2)cc1 |  |
| 13 nM | 920 nM | NC(=O)Nc1sc(-c2ccc(N)cc2)cc1C(=O)N[C@H]1CCCNC1 |  |
| 600 nM |  | COc1ccc(Nc2cc(-c3cccnc3)[nH]n2)cc1OC |  |
|  |  | NC(=O)Nc1sc(-c2ccccc2)cc1C(=O)N[C@@H]1CCCNC1 | EC50 ([2]; ht-29): 1900 nM |
| 100 nM | > 12500 nM | CCN(CC)CCOc1ccc(-c2cc(C(=O)Nc3cccnc3)c(NC(N)=O)s2)cc1 |  |
| 1000 nM |  | NC(=O)Nc1sc(-c2ccccc2)cc1C(=O)Nc1ccccc1 |  |
| 23000 nM | > 13000 nM | NC(=O)Nc1sc(-c2ccccc2)cc1C(=O)NC1CCCCNC1=O (stereo unspecified) |  |
| > 300 nM |  | CNCc1ccc(-c2cc(C(N)=O)c(NC(N)=O)s2)cc1 |  |
| 19 nM | 170 nM | NC(=O)Nc1sc(-c2ccc(C(F)(F)F)cc2)cc1C(=O)N[C@H]1CCCNC1 |  |
| 3900 nM |  | NC(=O)Nc1sc(-c2ccccc2)cc1C(=O)NC1CCCCC1 |  |
| 230 nM |  | NC(=O)Nc1sc(-c2ccc(OCCN3CCCCC3)cc2)cc1C(N)=O |  |
|  | > 12500 nM | CN(C)CCOc1ccc(-c2cc(C(N)=O)c(NC(N)=O)s2)cc1 |  |
| 35 nM | > 12500 nM | CCN(CC)CCOc1ccc(-c2cc(C(=O)NC3CCNCC3)c(NC(N)=O)s2)cc1 |  |
| 110 nM | 4100 nM | CN(C)CCNC(=O)c1cc(-c2ccccc2)sc1NC(N)=O |  |
| 10 nM | 610 nM | NC(=O)Nc1sc(-c2ccc(C(=O)N3CCOCC3)cc2)cc1C(=O)N[C@H]1CCCNC1 |  |
| > 30000 nM |  | NC(=O)Nc1sc(-c2ccccc2)cc1C(=O)N1CCOCC1 |  |

| IC50 [1] | EC50 ([2]; Homo sapiens, HT-29) | Structure (SMILES) | also measured |
| --- | --- | --- | --- |
| 110 nM |  | NC(=O)Nc1sc(-c2ccccc2)cc1C(=O)NC1CCNCC1 |  |
| 6 nM | 200 nM | CS(=O)(=O)c1ccc(-c2cc(C(=O)N[C@H]3CCCNC3)c(NC(N)=O)s2)cc1 |  |
| 37 nM | 270 nM | NC(=O)Nc1sc(-c2ccc(CN3CCCCC3)cc2)cc1C(N)=O |  |
| < 10 nM | 1100 nM | CCN(CC)CCOc1cccc(-c2cc(C(=O)N[C@H]3CCCNC3)c(NC(N)=O)s2)c1 |  |
| 5 nM | 3200 nM | NC(=O)Nc1sc(-c2ccc(C(N)=O)cc2)cc1C(=O)N[C@H]1CCCNC1 |  |
| 39 nM |  | NC(=O)Nc1sc(-c2ccc(CNC3CCCC3)cc2)cc1C(N)=O |  |
| 9 nM | 320 nM | CN(C)C(=O)c1ccc(-c2cc(C(=O)N[C@H]3CCCNC3)c(NC(N)=O)s2)cc1 |  |
| 300 nM |  | NC(=O)Nc1sc(-c2ccccc2)cc1C(=O)NCC1CNCCO1 (stereo unspecified) |  |
| 3 nM | 110 nM | NC(=O)Nc1sc(-c2ccccc2)cc1C(=O)N[C@@H]1CCCCNC1 |  |
| 7 nM | 1200 nM | NC(=O)Nc1sc(-c2ccc(O)cc2)cc1C(=O)N[C@H]1CCCNC1 |  |
| 41 nM | 90 nM | CN(C)c1ccc(-c2cc(C(=O)N[C@H]3CCCNC3)c(NC(N)=O)s2)cc1 |  |
| 3 nM | < 8 nM | NC(=O)Nc1sc(-c2cccs2)cc1C(=O)N[C@H]1CCCNC1 |  |
| 6700 nM |  | COCCOc1ccc(-c2cc(C(N)=O)c(NC(N)=O)s2)cc1 |  |
| 9 nM | 4300 nM | CNC(=O)c1ccc(-c2cc(C(=O)N[C@H]3CCCNC3)c(NC(N)=O)s2)cc1 |  |
| 230 nM |  | CN(C)CCCOc1ccc(-c2cc(C(N)=O)c(NC(N)=O)s2)cc1 |  |
|  |  | NC(=O)Nc1sc(-c2ccccc2)cc1C(=O)N[C@H]1CCCNC1 | logD [3]: 1.28; solubility [4]: > 2000 µM; clearance [5]: 35.7 mL/min/kg; half-life [6]: 1.5 h; clearance [7]: 12.8 mL/min/kg; half-life [8]: 5.2 h; bioavailability [9]: 78.8%; IC50 [10]: > 31600 nM; IC50 [11]: > 10000 nM |
| 9 nM | 80 nM | NC(=O)Nc1sc(-c2ccccc2F)cc1C(=O)N[C@H]1CCCNC1 |  |
| 2100 nM |  | NC(=O)Nc1sc(-c2ccccc2)cc1C(=O)NC1CCOCC1 |  |
| 2600 nM |  | NC(=O)Nc1sc(-c2ccc(OC(F)(F)F)cc2)cc1C(N)=O |  |
| 160 nM | 2300 nM | CN1CCC[C@@H](NC(=O)c2cc(-c3ccccc3)sc2NC(N)=O)C1 |  |
| 23000 nM |  | NC(=O)Nc1sc(-c2ccc(OCCOCC3CC3)cc2)cc1C(N)=O |  |
| 5 nM | 8100 nM | NC(=O)Nc1sc(-c2cccc(C(N)=O)c2)cc1C(=O)N[C@H]1CCCNC1 |  |

| Structure (SMILES) | IC50 [1] | EC50 ([2]; Homo sapiens, HT-29) | also measured |
| --- | --- | --- | --- |
| NC(=O)Nc1sc(-c2ccncc2)cc1C(=O)N[C@H]1CCCNC1 | 4 nM |  | EC50 ([2]; ht-29): 340 nM |
| NC(=O)Nc1sc(-c2ccccc2)cc1C(=O)N[C@@H]1CN2CCC1CC2 | 130 nM |  |  |
| NC(=O)Nc1sc(-c2cccnc2)cc1C(=O)N[C@H]1CCCNC1 | 6 nM |  | EC50 ([2]; ht-29): 300 nM |
| NC(=O)Nc1sc(-c2cccc(F)c2)cc1C(=O)N[C@H]1CCCNC1 | 11 nM |  | EC50 ([2]; ht-29): 20 nM |
| NC(=O)Nc1sc(-c2ccccc2)cc1C(=O)N[C@H]1CN2CCC1CC2 | 980 nM |  |  |
